The text below walks through data of article PMC5948155 (ACS infectious diseases, 2018).

“Also recorded” adds a separate entry of the source. Where a name gives a salt, the structure may show the parent alone.

Type in all cases: cell-based
For assay [1], the target named is T1, cholera toxin subunit B (CTB) (Vibrio cholerae serotype O1, UniProt P01556). The assay can be described thus: cell-based.
Assay [2] has as its target T1, cholera toxin subunit B (CTB).
Assay [3] shares this target. The source holds these as a separate data set.
Assay [4] deals with T2, Aleuria aurantia lectin (AAL) (Aleuria aurantia, UniProt P18891).
T2 sequence (P18891 1-313): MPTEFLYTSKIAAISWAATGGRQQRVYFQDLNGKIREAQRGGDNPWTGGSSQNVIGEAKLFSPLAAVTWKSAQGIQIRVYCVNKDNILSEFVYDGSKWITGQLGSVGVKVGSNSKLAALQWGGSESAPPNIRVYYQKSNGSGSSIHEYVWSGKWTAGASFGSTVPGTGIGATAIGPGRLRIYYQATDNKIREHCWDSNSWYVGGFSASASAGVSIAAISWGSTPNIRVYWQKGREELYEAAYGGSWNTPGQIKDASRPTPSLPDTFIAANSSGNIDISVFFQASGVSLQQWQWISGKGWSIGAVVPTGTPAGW

Assay [5] concerns the target T3, Maackia amurensis lectin I (MAL I) (Maackia amurensis, UniProt P0DKL3).
T3 sequence (P0DKL3 30-287): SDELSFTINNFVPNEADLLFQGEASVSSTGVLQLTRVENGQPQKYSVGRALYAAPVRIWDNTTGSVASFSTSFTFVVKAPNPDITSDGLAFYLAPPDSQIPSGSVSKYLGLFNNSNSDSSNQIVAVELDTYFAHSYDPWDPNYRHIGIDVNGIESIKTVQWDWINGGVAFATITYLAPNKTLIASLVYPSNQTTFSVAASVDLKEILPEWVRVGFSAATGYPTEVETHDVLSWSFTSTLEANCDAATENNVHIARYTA

In assay [6] the target is T2, Aleuria aurantia lectin (AAL). This is another data set of the same source.
The target in assay [7] is Sambucus nigra lectin (SNA) (Sambucus nigra, UniProt Q41358).
For a further assay, the target named is CTB (Vibrio cholerae serotype O1, UniProt P01556).
CTB, sequence (P01556 22-124 limits assumed): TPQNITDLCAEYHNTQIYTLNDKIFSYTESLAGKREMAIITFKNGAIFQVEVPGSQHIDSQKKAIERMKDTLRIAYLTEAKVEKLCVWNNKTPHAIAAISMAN

T1 sequence (P01556 22-124 limits assumed): as above
Sambucus nigra lectin (SNA), sequence (Q41358 309-570 limits assumed): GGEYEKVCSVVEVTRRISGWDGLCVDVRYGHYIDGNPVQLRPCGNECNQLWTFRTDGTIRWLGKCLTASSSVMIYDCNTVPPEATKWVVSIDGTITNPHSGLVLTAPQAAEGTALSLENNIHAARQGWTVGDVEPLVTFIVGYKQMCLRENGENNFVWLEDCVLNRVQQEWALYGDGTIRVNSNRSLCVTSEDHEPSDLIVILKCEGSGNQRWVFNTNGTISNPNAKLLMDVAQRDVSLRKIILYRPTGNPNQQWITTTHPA
Sambucus nigra lectin (SNA), sequence (Q41358 29-292 partner limits assumed): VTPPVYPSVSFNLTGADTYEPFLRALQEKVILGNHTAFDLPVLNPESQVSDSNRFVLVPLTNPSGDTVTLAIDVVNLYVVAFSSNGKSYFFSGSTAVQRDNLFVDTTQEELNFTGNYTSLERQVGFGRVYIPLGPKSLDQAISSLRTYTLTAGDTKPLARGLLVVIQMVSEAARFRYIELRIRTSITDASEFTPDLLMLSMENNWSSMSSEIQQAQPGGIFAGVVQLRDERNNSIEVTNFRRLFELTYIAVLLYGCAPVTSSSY

For the molecule `CC(=O)N[C@H]1C(O)O[C@H](CO)[C@@H](O[C@@H]2O[C@H](CO)[C@H](O)[C@H](O)[C@H]2O[C@@H]2O[C@@H](C)[C@@H](O)[C@@H](O)[C@@H]2O)[C@@H]1O[C@@H]1O[C@@H](C)[C@@H](O)[C@@H](O)[C@@H]1O` (mixture of isomers) [LeY, Fucα2Galβ4[Fucα3]GlcNAc], in assay [1], the “CTB binding, % of the no sugar control” value is recorded as ~ 20% and the “Inhibition of CTB binding to Colo205 cells (in words)” value is on record as “most potent blocker”. The “Inhibition of CTB binding to primary human jejunal epithelial cells (in words)” value in assay [2] is on record as “effectively block”. Besides, in assay [3], the “Inhibition of CTB binding to T84 cells, titration of inhibitor (in words)” value is on record as “near complete inhibition”. For the same molecule, in assay [4], the “AAL lectin retained bound to the cell surface” value is ~ 15% and the “Inhibition of AAL binding to Colo205 cells (in words)” value is reported as “more efficient; also recorded: capable of inhibiting”.

Consider `CC1OC(OC2C(OC3C(CO)OC(O)C(O)C3O)OC(CO)C(O)C2O)C(O)C(O)C1O` (stereo not shown) [2′-FL, 2′-Fucosyllactose], for which, in assay [1], half-maximal inhibition (IC50) required 3 mM, the “Inhibition of CTB binding to Colo205 cells (in words)” value was “more potent inhibitor than L-fucose alone”, the “Reduction of CTB binding compared to the no sugar control” value is given as “at least 75%” and the “Reduction of IC50 relative to L-fucose” value is recorded as ~ 5 fold. Besides, the “Inhibition of CTB binding to T84 cells (in words)” value in assay [3] was “more potent inhibitor”. In assay [4], the “Inhibition of AAL binding to Colo205 cells (in words)” value is recorded as “inhibit binding”.

Turning to `CC(=O)N[C@H]1[C@H]([C@H](O)[C@H](O)CO)O[C@@](O[C@H]2[C@@H](O)[C@@H](CO)O[C@@H](O[C@H]3[C@H](O)[C@@H](O)C(O)O[C@@H]3CO)[C@@H]2O)(C(=O)O)C[C@@H]1O` (stereo partly shown) [3′-SL, 3′-Sialyllactose sodium salt], the “Inhibition of CTB binding to Colo205 cells (in words)” value in assay [1] is “no inhibition”. Further, in assay [3], the “Inhibition of CTB binding to T84 cells (in words)” value is given as “no inhibition”. For the same molecule, in assay [5], the “Inhibition of MAL I binding (in words)” value was “enhance the inhibitory potential of lactose”.

With `C[C@@H](O)[C@@H](O)[C@H](O)[C@@H](O)C=O` [6-deoxy-D-glucose], in assay [1], the “Inhibition of CTB binding to Colo205 cells (in words)” value is given as “only minor effects”. Besides, the “Inhibition of AAL binding to T84 cells (in words)” value in assay [6] was “virtually no effect”. Also, the “Inhibition of CTB binding to T84 cells (in words)” value in assay [3] is on record as “no effect”. In addition, the “Inhibition of AAL binding to Colo205 cells (in words)” value in assay [4] is “virtually no effect”.

Turning to `CC(=O)N[C@H]1[C@H]([C@H](O)[C@H](O)CO)O[C@@](OC[C@H]2O[C@@H](O[C@H]3[C@H](O)[C@@H](O)[C@H](O)O[C@@H]3CO)[C@H](O)[C@@H](O)[C@H]2O)(C(=O)O)C[C@@H]1O` [6′-SL, 6′-Sialyllactose sodium salt], the “Inhibition of CTB binding to Colo205 cells (in words)” value in assay [1] was “no inhibition”. Besides, the “Inhibition of CTB binding to T84 cells (in words)” value in assay [3] is listed as “no inhibition”. For the same molecule, in assay [7], the “Inhibition of SNA binding (in words)” value was “enhance the inhibitory potential of lactose”.

In the case of `OC1OC[C@@H](O)[C@@H](O)[C@@H]1O` (stereo partly drawn) [D-arabinose, d-(−)-Arabinose], the “Inhibition of CTB binding to Colo205 cells (in words)” value in assay [1] was “indistinguishably from the no sugar control”. Further, the “Inhibition of AAL binding to T84 cells (in words)” value in assay [6] is listed as “effective inhibitors”. In addition, the “Inhibition of CTB binding to T84 cells (in words)” value in assay [3] is “indistinguishably from the no sugar control”. Also, the “Inhibition of AAL binding to Colo205 cells (in words)” value in assay [4] was “effective inhibitors”.

On to `C[C@H]1OC(O)[C@H](O)[C@@H](O)[C@H]1O` (stereo partly drawn) [D-fucose, d-(+)-Fucose], for which the “Inhibition of CTB binding to Colo205 cells (in words)” value in assay [1] is listed as “only minor effects”. Besides, in assay [6], the “Inhibition of AAL binding to T84 cells (in words)” value is “virtually no effect”. The “Inhibition of CTB binding to T84 cells (in words)” value in assay [3] was “only a modest effect”. Moreover, in assay [4], the “Inhibition of AAL binding to Colo205 cells (in words)” value is recorded as “virtually no effect”.

Take `C[C@@H]1O[C@@H](O[C@H]2[C@H](O[C@H]3[C@H](O[C@@H]4O[C@@H](C)[C@@H](O)[C@@H](O)[C@@H]4O)[C@@H](O)C(O)O[C@@H]3CO)O[C@H](CO)[C@H](O)[C@@H]2O)[C@@H](O)[C@H](O)[C@@H]1O` (stereo partly shown) [DF-L, Difucosyllactose]: in assay [1], the “Reduction of CTB binding compared to the no sugar control” value is given as “at least 75%”. Also, the “Inhibition of AAL binding to Colo205 cells (in words)” value in assay [4] is on record as “more efficient”.

For `C[C@H](O)[C@@H](O)[C@@H](O)[C@H](O)C=O` [L-fucose, l-(−)-Fucose], in assay [1], the “CTB binding, % of the no sugar control” value is ~ 20% and the IC50 amounted to 14.5 mM. The “Inhibition of AAL binding to T84 cells (in words)” value in assay [6] was “effectively block”. Moreover, the “Inhibition of CTB binding to T84 cells (in words)” value in assay [3] was “dramatically suppress; also recorded: suppression of CTB binding was observed”. In assay [4], the “Inhibition of AAL binding to Colo205 cells (in words)” value was “effectively block”.

Turning to `O=C[C@@H](O)[C@H](O)[C@H](O)[C@@H](O)CO` [L-galactose, L-Galactose], the “Inhibition of CTB binding to Colo205 cells (in words)” value in assay [1] is “modest loss in inhibition”. The “Inhibition of AAL binding to T84 cells (in words)” value in assay [6] was “effective inhibitors”. Also, the “Inhibition of CTB binding to T84 cells (in words)” value in assay [3] is on record as “modest loss in inhibition”. Besides, in assay [4], the “Inhibition of AAL binding to Colo205 cells (in words)” value was “effective inhibitors”.

As for `O=C[C@@H](O)[C@H](O)[C@@H](O)[C@@H](O)CO` [L-glucose], the “Inhibition of CTB binding (in words)” value at CTB is on record as “loss of all inhibitory activity”.

`CC(=O)N[C@H]1C(O)O[C@H](CO)[C@@H](O[C@@H]2O[C@H](CO)[C@H](O)[C@H](O)[C@H]2O)[C@@H]1O` (stereo partly drawn) [LacNAc, N-Acetyl-D-lactosamine]: the “Inhibition of CTB binding to primary human jejunal epithelial cells (in words)” value in assay [2] was “no inhibition”.

In the case of `CC(=O)N[C@H]1[C@H]([C@H](O)[C@H](O)CO)O[C@@](O[C@H]2[C@@H](O)[C@@H](CO)O[C@@H](O[C@@H]([C@H](O[C@@H]3O[C@@H](C)[C@@H](O)[C@@H](O)[C@@H]3O)[C@H](C=O)NC(C)=O)[C@H](O)CO)[C@@H]2O)(C(=O)O)C[C@@H]1O` [sLeX, 3′-Sialyl Lewis X], in assay [1], the “Inhibitory potential, fold less than that of LeY” value is 2 fold. The “Inhibition of CTB binding to T84 cells, titration of inhibitor (in words)” value in assay [3] is “near complete inhibition”. For the same molecule, in assay [4], the “AAL lectin retained bound to the cell surface” value was ~ 70%.
